≈ marks a conversion by molar mass, not a printed value.
Key:
B. subtilis 168 [1] = test system: B. subtilis 168
S. aureus DSM 20231 [2] = test system: S. aureus DSM 20231
S. aureus Newman [3] = test system: S. aureus Newman
S. pneumoniae D39V [4] = test system: S. pneumoniae D39V
B. subtilis 168 [5] = assay: fitness (endpoint OD595 vs no drug) (fraction); higher = more growth
Summary of the method: (§1)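 Bacterial growth was followed in 384-well plates seeded at OD595 0.01, with 30 µl per well, or 55 µl for S. pneumoniae, in TSB, LB Lennox or CY at 37 °C. OD595 was read every 30 min for 14 h, and each reading had the first reading subtracted as background. Fitness is the background-corrected optical density at entry into stationary phase divided by the robust mean of the no-drug control wells. This ratio is capped at 1.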

S. aureus DSM 20231 [6] = assay: as above
Summary of the method: as §1

S. aureus Newman [7] = assay: as above
Summary of the method: as §1

S. pneumoniae D39V [8] = assay: as above
Summary of the method: as §1

CC[C@H]1OC(=O)[C@H](C)[C@@H](O[C@H]2C[C@@](C)(OC)[C@@H](O)[C@H](C)O2)[C@H](C)[C@@H](O[C@@H]2O[C@H](C)C[C@H](N(C)C)[C@H]2O)[C@](C)(O)C[C@@H](C)CN(C)[C@H](C)[C@@H](O)[C@]1(C)O [Azithromycin]
Conditions | MIC [µg/mL]
B. subtilis 168 [1] | 2 (≈ 2.67 µM)
S. aureus DSM 20231 [2] | 0.556 (≈ 0.742 µM)
S. aureus Newman [3] | 0.5 (≈ 0.668 µM)
S. pneumoniae D39V [4] | 2 (≈ 2.67 µM)

fitness
Conditions | 0.125 µg/mL | 0.25 µg/mL | 0.5 µg/mL | 1 µg/mL | 2 µg/mL
B. subtilis 168 [5] | – | 0.891 | 0.869 | 0.699 | 0.0641
S. aureus DSM 20231 [6] | 0.994 | 0.914 | 0.508 | 0.834 | –
S. aureus Newman [7] | 0.93 | 0.901 | 0.706 | – | –
S. pneumoniae D39V [8] | – | 0.524 | 0.323 | 0.096 | –

CC1=C(C(=O)O)N2C(=O)[C@@H](NC(=O)[C@H](N)c3ccccc3)[C@H]2SC1 [Cephalexin]
Conditions | MIC [µg/mL]
S. aureus DSM 20231 [2] | 4 (≈ 11.5 µM)
S. aureus Newman [3] | 4 (≈ 11.5 µM)
S. pneumoniae D39V [4] | 4 (≈ 11.5 µM)

fitness
Conditions | 0.125 µg/mL | 0.25 µg/mL | 0.5 µg/mL | 1 µg/mL | 2 µg/mL | 4 µg/mL
B. subtilis 168 [5] | 0.925 | 0.917 | 0.937 | 0.939 | – | –
S. aureus Newman [7] | – | 0.987 | ≥ 1 | ≥ 1 | ≥ 1 | –
S. pneumoniae D39V [8] | – | – | – | 0.649 | 0.29 | 0.0479

O=C(O)[C@H]1/C(=C/CO)O[C@@H]2CC(=O)N21 [Clavulanic acid]
Conditions | MIC [µg/mL]
B. subtilis 168 [1] | 8 (≈ 40.2 µM)
S. aureus DSM 20231 [2] | 0.5 (≈ 2.51 µM)
S. aureus Newman [3] | 0.5 (≈ 2.51 µM)
S. pneumoniae D39V [4] | 2 (≈ 10 µM)

fitness
Conditions | 0.5 µg/mL | 1 µg/mL | 1.5 µg/mL | 2 µg/mL | 3 µg/mL | 6 µg/mL
B. subtilis 168 [5] | – | – | 0.899 | – | 0.887 | 0.769
S. pneumoniae D39V [8] | 0.966 | 0.939 | – | 0.867 | – | –

CNC(C)C1CCC(N)C(OC2C(N)CC(N)C(OC3OCC(C)(O)C(NC)C3O)C2O)O1 (configuration not stated) [Gentamicin]
main component drawn
Conditions | MIC [µg/mL]
B. subtilis 168 [1] | 0.25 (≈ 0.523 µM)
S. aureus DSM 20231 [2] | 2 (≈ 4.19 µM)
S. aureus Newman [3] | 2 (≈ 4.19 µM)
S. pneumoniae D39V [4] | 18 (≈ 37.7 µM)

main component drawn
Conditions | fitness
B. subtilis 168 [5], 0.0625 µg/mL | 0.887
B. subtilis 168 [5], 0.125 µg/mL | 0.131
B. subtilis 168 [5], 0.25 µg/mL | 0.0542
S. aureus DSM 20231 [6], 0.5 µg/mL | ≥ 1
S. aureus DSM 20231 [6], 1 µg/mL | ≥ 1
S. aureus DSM 20231 [6], 2 µg/mL | 0.984
S. aureus DSM 20231 [6], 4 µg/mL | 0.129
S. aureus Newman [7], 0.375 µg/mL | ≥ 1
S. aureus Newman [7], 0.5 µg/mL | 0.996
S. aureus Newman [7], 0.75 µg/mL | ≥ 1
S. aureus Newman [7], 1 µg/mL | 0.992
S. aureus Newman [7], 1.5 µg/mL | 0.583
S. aureus Newman [7], 2 µg/mL | 0.999
S. aureus Newman [7], 4 µg/mL | 0.302
S. pneumoniae D39V [8], 2 µg/mL | 1
S. pneumoniae D39V [8], 4 µg/mL | 0.986
S. pneumoniae D39V [8], 8 µg/mL | 0.962

Clc1ccc(COC(Cn2ccnc2)c2ccc(Cl)cc2Cl)c(Cl)c1 (configuration not stated) [Miconazole]
Conditions | MIC [µg/mL]
B. subtilis 168 [1] | 5 (≈ 12 µM)
S. aureus DSM 20231 [2] | 5 (≈ 12 µM)
S. aureus Newman [3] | 3 (≈ 7.21 µM)
S. pneumoniae D39V [4] | 10 (≈ 24 µM)

S. pneumoniae D39V [8]
Conditions | fitness
1.25 µg/mL | 0.907
2.5 µg/mL | 0.893
5 µg/mL | 0.926

Cc1onc(-c2ccccc2)c1C(=O)N[C@@H]1C(=O)N2[C@@H]1SC(C)(C)[C@@H]2C(=O)O [Oxacillin]
Conditions | MIC [µg/mL]
S. aureus DSM 20231 [2] | 0.069 (≈ 0.172 µM)
S. aureus Newman [3] | 0.069 (≈ 0.172 µM)
S. pneumoniae D39V [4] | 0.031 (≈ 0.0772 µM)

Conditions | fitness
B. subtilis 168 [5], 0.002 µg/mL | 0.925
B. subtilis 168 [5], 0.004 µg/mL | 0.936
B. subtilis 168 [5], 0.0078 µg/mL | 0.941
B. subtilis 168 [5], 0.008 µg/mL | 0.962
B. subtilis 168 [5], 0.0155 µg/mL | 0.952
B. subtilis 168 [5], 0.031 µg/mL | 0.902
S. aureus DSM 20231 [6], 0.0156 µg/mL | 0.972
S. aureus DSM 20231 [6], 0.0312 µg/mL | 0.889
S. aureus DSM 20231 [6], 0.0625 µg/mL | 0.621
S. aureus Newman [7], 0.0156 µg/mL | 0.843
S. aureus Newman [7], 0.0312 µg/mL | 0.759
S. aureus Newman [7], 0.0625 µg/mL | 0.608
S. pneumoniae D39V [8], 0.005 µg/mL | ≥ 1
S. pneumoniae D39V [8], 0.01 µg/mL | 0.996
S. pneumoniae D39V [8], 0.02 µg/mL | 0.986
S. pneumoniae D39V [8], 0.04 µg/mL | 0.515

C[n+]1ccc(-c2cc[n+](C)cc2)cc1 [Paraquat]
Conditions | MIC [µg/mL]
B. subtilis 168 [1] | 50
S. aureus DSM 20231 [2] | 50
S. aureus Newman [3] | 50
S. pneumoniae D39V [4] | 10

fitness
Conditions | 1.25 µg/mL | 1.5 µg/mL | 2.5 µg/mL | 3 µg/mL | 5 µg/mL | 6 µg/mL
B. subtilis 168 [5] | 0.912 | – | 0.899 | – | 0.848 | –
S. aureus DSM 20231 [6] | ≥ 1 | – | 0.99 | – | 0.988 | –
S. aureus Newman [7] | 0.986 | – | 0.944 | – | 0.94 | –
S. pneumoniae D39V [8] | – | 0.992 | – | 0.993 | – | 0.965

Cn1c2cccc(=O)c-2nc2ccccc21 [Pyocyanin]
Conditions | MIC [µg/mL]
B. subtilis 168 [1] | 5 (≈ 23.8 µM)
S. aureus DSM 20231 [2] | 5 (≈ 23.8 µM)
S. aureus Newman [3] | 5 (≈ 23.8 µM)
S. pneumoniae D39V [4] | 1.44 (≈ 6.85 µM)

fitness
Conditions | 0.325 µg/mL | 0.65 µg/mL | 1.25 µg/mL | 1.3 µg/mL | 2.5 µg/mL | 5 µg/mL
B. subtilis 168 [5] | – | – | 0.886 | – | 0.841 | 0.708
S. aureus DSM 20231 [6] | – | – | 0.997 | – | 0.892 | 0.59
S. aureus Newman [7] | – | – | 0.896 | – | 0.843 | 0.399
S. pneumoniae D39V [8] | ≥ 1 | 0.991 | – | 0.835 | – | –

CN(N=O)C(=O)N[C@@H](C=O)[C@@H](O)[C@H](O)[C@H](O)CO [Streptozotocin]
Conditions | MIC [µg/mL]
B. subtilis 168 [1] | 0.7 (≈ 2.64 µM)
S. aureus DSM 20231 [2] | 0.8 (≈ 3.02 µM)
S. aureus Newman [3] | 0.8 (≈ 3.02 µM)
S. pneumoniae D39V [4] | 5 (≈ 18.9 µM)

fitness
Conditions | 0.15 µg/mL | 0.3 µg/mL | 0.6 µg/mL | 1.2 µg/mL | 2.4 µg/mL | 4.8 µg/mL
B. subtilis 168 [5] | 0.987 | 0.961 | 0.99 | – | – | –
S. aureus DSM 20231 [6] | 0.891 | 0.843 | 0.756 | – | – | –
S. aureus Newman [7] | 0.852 | 0.735 | 0.524 | – | – | –
S. pneumoniae D39V [8] | – | – | – | 0.96 | 0.936 | 0.975
